In patent publication US20260325485A1, “COMPOSITIONS AND METHODS FOR TREATING PANCREATITIS” (The United States Government as represented by the …, priority 2022, published 2026):
Entries after “also recorded” stand apart in the source; their conditions may differ. Residues, ends and D or L forms follow the SMILES beside them. No end group written: not given here.

Legend:
[1] = system: pancreas; experiment: Pancreatic total cholesterol and lipids in acute pancreatitis models in WT mice; type: in vivo, mouse
Experimental: (§1) FIGS. 8A-8M show derangement of cholesterol metabolism in experimental pancreatitis. Characteristics of cholesterol metabolism were measured, as detailed in FIGS. 4A-4R, in pancreas of WT mice subjected to pancreatitis induced with cerulein (CER-AP), L-arginine (Arg-AP), or CDE diet (CDE-AP) (A, B, and E-G); ex vivo pancreatitis induced in WT mouse (C and I-M) or human acinar cells (D) with 100 nM CCK (CCK-AP) or 1 mM carbachol; and isolated pancreatic mitochondria (H). (B) Cholesterol ester (CE) heatmap; each column represents an individual mouse. (F) IB analysis of the indicated proteins. (G) LAL activity was measured by a fluorogenic assay (n=6 mice per condition). (H) Cholesterol content was measured by enzymatic assay. (I-M) Filipin colocalization with indicated proteins was quantified as detailed in FIGS. 2A-2L. Each symbol in A, C-E, and H represents an individual mouse, or cell or mitochondria preparation (n=3-15 per condition). Each symbol in J, K, and M corresponds to 20-30 cells in a different field (n=10-20 fields from 3 cell preparations per condition). Values are mean±SEM. *P<0.05, **P<0.01, ***P<0.001 vs. the same parameter in control/untreated pancreas, acinar cells or isolated mitochondria. Significance was determined by 2-tailed Student's t test (B, E, H, J, K, and M) or 1-way ANOVA followed by Tukey's multiple comparison test (A, C, and D). Scale bars: 10 μm.
Parameters of cholesterol metabolism were measured in (A, B, E, F) pancreas of mice subjected to pancreatitis induced with cerulean (CER-AP), L-arginine (Arg-AP), or combination of EtOH+palmitoleic acid (EtOH+POA); and (C) ex-vivo models on mouse and human acinar cells treated for 1 h with 100 nM CCK, […] or 500 μM TLCS. […] (B, C) Total cholesterol content was measured with cholesterol assay kit (Abcam, ab65390). […] Signficance was determined by 2-tailed student's t test. […]
(§2) Total cholesterol content was measured with Cholesterol Assay kit per manufacturer's instructions. […]
Triglycerides (TAG) content was measured using Triglyceride Assay kit. […]

[2] = system: pancreas; experiment: Pancreatic mRNA expression and protein levels (qPCR, IB) in cerulein pancreatitis; type: in vivo, mouse
Experimental: as §1
FIGS. 9A-9E show cerulein pancreatitis decreases pancreatic levels of GNPTAB and mediators of cholesterol trafficking through LE/Ly. (A, D, and E) IB analysis of the indicated proteins in pancreas of WT mice subjected to CER-AP and in Gnptab^−/− mice. NS, nonspecific band. (B and C) Cholesterol content was measured in pancreas of (B) WT mice that received daily i.p. injections of the NPC1 inhibitor U18666A (10 mg/kg) or vehicle for 15 days and (C) Lamp2^−/− mice. Each symbol in B, C, and E represents an individual mouse. Values are mean±SEM from 3 to 5 mice per condition. ***P<0.001 vs. the same parameter in WT control/untreated or saline-treated mice. Significance was determined by 2-tailed Student's t test (B and C) or 1-way ANOVA followed by Tukey's multiple comparison test (E).
(§3) Cerulein-induced (CER-AP) and L-arginine induced (Arg-AP) acute pancreatitis models were performed in 12-week-old C57BL/6 mice that received 7 hourly i.p. injections of 50 μg/kg cerulein or 3 hourly i.p. injections of 3.3 g/kg Arg; controls received physiologic saline injections. Mice were euthanized for analyses 7 hours after the first cerulein or 24 hours after the first Arg injection. Choline deficient, ethionine-supplemented (CDE) pancreatitis was induced in young (~5-weeks old) female mice fed either CDE or control diet. Mice were euthanized 72 hours after the diet initiation. These models have been described in detail (1-7).
Immunoblots were developed using enhanced chemiluminescence detection kit (Pierce), and band intensities were quantified by densitometry using FluorChem HD2 imaging system (Alpha Innotech/ProteinSimple).
qPCR. Total RNA was isolated from tissue or cells using QIAGEN RNeasy Plus kit according to the manufacturer's instructions, quantified in NanoDrop, and converted to cDNA with high-capacity cDNA reverse transcription kit. KAPA SYBR FAST qPCR Master Mix kit and a LightCycler 480 were used for quantitative PCR. Fold change related to the control group was calculated using the 2ΔΔCt method with Rplp0/36B4 as the reference gene. Primers are available upon request.

[3] = system: lysosomal acid lipase (LAL); experiment: Lysosomal acid lipase (LAL) activity in cerulein pancreatitis; type: in vivo, mouse; settings: WT mice with CER-AP
Experimental: as §1, with “Each symbol in A, C-E, and H represents an individual mouse, or cell or mitochondria preparation (n=3-15 per condition). Each symbol in J, K, and M corresponds to 20-30 cells in a different field (n=10-20 fields from 3 cell preparations per condition). Values are mean±SEM. *P<0.05, **P<0.01, ***P<0.001 vs. the same parameter in control/untreated pancreas, acinar cells or isolated mitochondria.” left out, “Scale bars: 10 μm.” left out
Activities of cathepsin (Cat) B and L, caspase-3, trypsin, and lysosomal acid lipase (LAL) were measured in pancreatic tissue or cell homogenates and subcellular fractions with fluorogenic assays using substrates specific for CatB (Z-Arg-Arg-AMC), CatL (Z-Phe-Arg-AMC), caspase-3-like ([…]), trypsin (Boc-Gln-Ala-Arg-AMC), as previously described (1-4, 6, 7); and for LAL (4-methylumbelliferyl oleate), as in (17). […]

[4] = system: pancreatic mitochondria; experiment: Cholesterol content of isolated pancreatic mitochondria in cerulein pancreatitis; type: in vivo, mouse; settings: WT mice with CER-AP
Experimental: as §1, with “Each symbol in A, C-E, and H represents an individual mouse, or cell or mitochondria preparation (n=3-15 per condition). Each symbol in J, K, and M corresponds to 20-30 cells in a different field (n=10-20 fields from 3 cell preparations per condition). Values are mean±SEM. *P<0.05, **P<0.01, ***P<0.001 vs. the same parameter in control/untreated pancreas, acinar cells or isolated mitochondria.” left out, “Scale bars: 10 μm.” left out
Mitochondria were isolated from mouse pancreas and liver in a Ca2+-free medium in the presence of 1 mM EGTA, as in (3-5,13). The value of respiratory control ratio in these preparations, measured in the presence of succinate (quality control parameter), was greater than 3.0.
as §2

[5] = Serum cholesterol in cerulein pancreatitis; type: in vivo, mouse; settings: CER-AP
Experimental: as §3
(§4) Total cholesterol content was measured with Cholesterol Assay kit per manufacturer's instructions. Samples of mouse pancreas and liver, cell pellet homogenates, subcellular fractions, isolated mitochondria, and serum were diluted in the reaction buffer containing cholesterol probe and incubated at 37° C. for 1 h in the dark. To measure total cholesterol, the samples were subjected to digestion with cholesterol esterase. To measure non-esterified cholesterol, the esterase was omitted from the assay.

[6] = system: mouse acinar cells; experiment: Total cholesterol content of mouse acinar cells (ex vivo pancreatitis models or cholesterol chelator); type: cell-based; design: total cholesterol in acinar cells, physiologic doses: dose or concentration left out as unconfirmed
Experimental: as §1
(§5) Parameters of cholesterol metabolism were measured in (A, B, E, F) pancreas of mice subjected to pancreatitis induced with cerulean (CER-AP), L-arginine (Arg-AP), or combination of EtOH+palmitoleic acid (EtOH+POA); and (C) ex-vivo models on mouse and human acinar cells treated for 1 h with 100 nM CCK, […] or 500 μM TLCS. In (A), each column in CE heatmap represents an individual mouse. (B, C) Total cholesterol content was measured with cholesterol assay kit (Abcam, ab65390). […] Each symbol corresponds to 20-30 cells in each of 8 high-expression (qPCR) of proteins regulating cholesterol synthesis (4 mice/group). (B-D) Each symbol represents an individual animal or cell preparation. (A-D, F) Values are mean±SE (*p<0.05, **p<0.01, ***p<0.001 vs saline or control). Signficance was determined by 2-tailed student's t test.
(§6) Ex vivo pancreatitis models were performed on mouse and human acinar cells, and human pancreas slices by incubation with supramaximal CCK (100 nM) or carbachol (1 mM), as described previously (80, 81).
as §4
Fluorescence intensity (for cholesterol) and absorbance (for TAG) were measured in a Tecan microplate reader. Each measurement was in duplicate, and the values were normalized per mg total protein in the sample.

[7] = system: human acinar cells; experiment: Total cholesterol content of human acinar cells (ex vivo pancreatitis models); type: cell-based
Experimental: as §1, §5, §6
Human pancreas slices were obtained as in (12), from portions of live normal human pancreata from pre-terminal donors that were not used for transplantation and diverted to research (provided by Trillium Gift of Life Network, Toronto, Ontario, year 2020) or from normal portions of pancreatic cancer operations. Pancreas was cut into ~3×3×3 mm pieces and embedded with 37° C. low melting 3.8% agarose gel in extracellular solution containing (mM): 125 NaCl, 2.5 KCl, 1 MgCl2, 2 CaCl2, 1.25 NaH2PO4, 26 NaHCO3, 2 sodium pyruvate, 0.25 ascorbic acid, 3 myo-inositol, 6 lactic acid, and 7 glucose, and placed on ice to solidify the gel. The gelled tissue blocks were sliced with Vibratome into 120 μm-thick slices; slices were washed with the same extracellular solution, placed in 199 medium containing 0.1 mg/mL soybean trypsin inhibitor, and treated with CCK-8 (CCK) or carbachol for ex-vivo pancreatitis.
as §2

[8] = system: free cholesterol; experiment: Filipin colocalization with organelle markers in ex vivo CCK-AP; type: cell-based, mouse; settings: 100 nM CCK
Experimental: as §1, with “Each symbol in A, C-E, and H represents an individual mouse, or cell or mitochondria preparation (n=3-15 per condition). Each symbol in J, K, and M corresponds to 20-30 cells in a different field (n=10-20 fields from 3 cell preparations per condition). Values are mean±SEM. *P<0.05, **P<0.01, ***P<0.001 vs. the same parameter in control/untreated pancreas, acinar cells or isolated mitochondria.” left out, “Scale bars: 10 μm.” left out
All fluorescence images were acquired with a Zeiss LSM710 confocal microscope using x63 objective and preset within-experiment image acquisition settings. Quantitative fluorescence analysis was performed with Volocity software (PerkinElmer). Overlap between 2 fluorescent labels was measured using Manders-Costes coefficient. […]

[9] = ex-vivo pancreatitis, 1 h, 100 nM CCK, 1 mM carbachol or 500 μM TLCS
[10] = supramaximal (100 nM) CCK-8 or carbachol, ex vivo AP

Compound | pancreatic total cholesterol, AP models ([1]; Arg-AP, CER-AP or CDE-AP) | pancreatic triglycerides in CER-AP ([1]; CER-AP) | decrease in pancreatic GNPTAB α-subunit protein level ([2]; CER-AP) | pancreatic LAMP2 levels ([2]; CER-AP) | LDLR protein level ([2]; WT mice with CER-AP) | SREBP2 protein level ([2]; WT mice with CER-AP) | pancreatic NPC1 ([2]; WT mice with CER-AP) | pancreatic mRNA expression for enzymes mediating cholesterol synthesis ([2]; WT mice with CER-AP) | NPC2 levels ([2]; WT mice with CER-AP, listed as CER) | LAL activity [3] | mitochondrial cholesterol [4] | serum cholesterol levels [5] | cholesterol overload, mouse acinar cells [6, 9] | total cholesterol in acinar cells, physiologic doses ([6]; physiologic doses of CCK or carbachol) | cholesterol content, mouse acinar cells, supramaximal stimulation [6, 10] | cholesterol overload, human acinar cells [7, 9] | cholesterol content, human acinar cells, supramaximal stimulation [7, 10] | free cholesterol in Rab7-positive LE/Ly [8] | plasma membrane free cholesterol (filipin colocalization with cadherin) [8]
CSCC[C@H](NC(=O)[C@H](Cc1c[nH]c2ccccc12)NC(=O)CNC(=O)[C@@H](NC(=O)[C@H](Cc1ccc(OS(=O)(=O)O)cc1)NC(=O)[C@H](CC(=O)O)NC(=O)[C@H](CCC(N)=O)NC(=O)[C@@H]1CCC(=O)N1)[C@@H](C)O)C(=O)N[C@@H](CC(=O)O)C(=O)N[C@@H](Cc1ccccc1)C(N)=O [cerulein] (HELM PEPTIDE1{[Glp].Q.D.[O=C([C@H](Cc1ccc(OS(=O)(=O)O)cc1)N[*:1])[*:2]].T.G.W.M.D.F.[am]}$$$$V2.0) | increases | unchanged | approximately 5 fold | greatly decrease | increased | increased | greatly decreased | upregulation | no change; also recorded: not reduced | increased | elevated | did not change | – | – | – | – | – | – | –
CCK: hormone cholecystokinin-8 (CCK) (DYMGWMDF; ends and bridges not checked; UniProt P06307 96-103, looked up) | – | – | – | – | – | – | – | – | – | – | – | – | prominent | did not alter | increased | prominent | increased | accumulation | markedly decreased
